Measurements: article PMC10878532, “Sperm Toolbox—A selection of small molecules to study human spermatozoa” (PLOS ONE, 2024)

Experiments:
human spermatozoa [1] = experiment: Motility assay (non-capacitating conditions); assay type: cell-based
Experimental: (§1) To compare the effects of STB compounds on specific sperm functions (e.g. motility, acrosome reaction, viability), we screened them in multiple phenotypic functional assays described below. Each sperm function assay has been repeated in multiple donor pools (see Materials and methods), where each pool consists of cells donated from at least 3 different donors to address donor to donor variability. Each compound has been tested at two concentrations, 10 and 30 μM, and normalized to vehicle controls (DMSO, see Materials and methods). We have modified our assays from the previously published workflow by increasing incubation time and introducing conditions that support capacitation, which is a sperm maturation process required for fertilization. These changes expand the range of targets that we can explore in our assays. Our live-sperm-based high-throughput motility assays use an automated microscope to record short timelapse movies. These assays can be run in different protocols (S1 Fig). […] In this protocol, cells are incubated with compounds for 10 min prior to the first motility read-out. A second and third motility read-out were performed after 3h and 6h incubation. The second protocol, denoted ‘capacitation assay’, utilises conditions that support capacitation (S1 Fig). In this protocol, cells are kept in conditions supporting capacitation for 30 minutes prior to 30 minutes incubation with compound, followed by motility read-out. Both protocols allow sperm motility to be measured (0.5 sec time-lapse movies allow tracking of cells and calculation of sperm kinematics). In addition, the capacitation assay also scores hyperactivation (i.e. distinct movement patterns concomitant with capacitation which are crucial for fertilization) (Fig 2A).
Cells were rested for 1 h post density gradient centrifugation. 10 μL assay buffer was dispensed into assay ready plates, plates were put onto a shaker instrument for 30 seconds using 1,000 rpm, followed by a short pulse centrifugation. Plates were incubated for 15–30 mins at 37°C prior to addition of 10 μL of pooled cells (at 1 M/mL concentration). Plates were then incubated in a Yokogawa CV7000 microscope set at 37°C for 10 min prior to imaging. Imaging a 384-well plate requires ≤ 20 min using the following settings: 2 positions per well, 0.5 sec timelapse movies (3x binning; 11 ms exposure time, 22 ms interval time, […]). A second and a third timepoint was recorded after 3 h, and 6 h incubation at 37°C. Data has been processed as described in [8]. Assay results are from 5 separate donor pools.
(§2) For cell painting imaging data, plates of images were imported into OMERO [70]. Cell segmentation and feature extraction were performed using CellProfiler 3 [71] and using instructions from to normalize data. Timelapse data of motility assays was processed as previously described. Acrosome flow cytometry data was processed using NovoCyte Express (PerkinElmer), to gate out background debris, select for single cells and calculate percentage values of acrosome positive events. Sperm viability flow cytometry data was processed using iQue Forecyt (Satorius) to gate out background debris, select for single cells and calculate percentage values of propidium iodide positive events. For all sperm functional assays, data was normalized to DMSO control wells. Each plate had 16 DMSO wells. A median value of all 16 wells was used to calculated percentage change (pct_ch = ((value / DMSO_median) -1) * 100). For sperm viability we calculated fold-change (fc = 1 − (value / DMSO_median)). For each compound we calculated a p-value using a Welch’s t-test implemented in scipy (scipy.stats.ttest_ind) comparing a compounds effect to DMSO controls.

spermatozoa = test system: spermatozoa; parameters: method as in per compound as listed in column References of Table 1; settings: summaries of reported effects; ref per compound as listed in Table 1; cited from earlier work
[2] = test system: Testis-Specific Serine/Threonine Kinase 2 (TSSK2); parameters: method as in PMID 28952188; settings: described as; cited from earlier work
human spermatozoa [3] = experiment: Acrosome assay, protocol 1 (3h incubation with compound, no agonist; flow cytometry, PNA); assay type: cell-based; settings: 3h with compound, no agonist addition
Experimental: The acrosome assays utilize a high-throughput flow cytometer (S1 Fig) to score for compounds inducing the acrosome reaction, using peanut agglutinin conjugated to a fluorescent dye to label the outer acrosomal membrane. We have developed two different screening protocols, named ‘acrosome 1’ and ‘acrosome 2’ (S1 Fig). […] This addition allowed measurement of inhibition of acrosome reaction (Fig 2B).
(§3) In both experimental protocols, 20 μL of pooled cells (at 1 M/mL concentration) were capacitated for 3 h in presence of compounds at 37°C and 5% CO2. In protocol a, cells were then stained with PNA-Alexa647 (ThermoFisher, 1 mg/mL, final dilution 1:1000) and Hoechst dye for 30 min at 37°C and 5% CO2, followed by 10 min fixation at RT by adding 20 μL of 4% paraformaldehyde (Sigma) in PBS. In mode b, a cocktail of progesterone, prostaglandin A and NH4Cl was added to all compound wells and incubated for an additional 1 h at 37°C and 5% CO2 to induce acrosome reaction. This was followed by fixation and staining protocol as for mode a. In both protocols fixatives and stains were removed and cells were resuspended in PBS, using a 405 platewasher. Plates were then measured on a Novocyte Advanteon high-throughput flow cytometer. Gating of data has been performed using the flow cytometer software to export counts of gated populations. The Acrosome 1 protocol using 3h incubation with compounds was run in 7 separate donor pools. The Acrosome 2 protocol using 3h incubation with compound followed by 1h stimulation of acrosome reaction was run in 5 separate donor pools.
as §2

human spermatozoa [4] = experiment: Acrosome assay, protocol 2 (3h with compound, then 1h agonist cocktail); assay type: cell-based; settings: cluster in Fig 3A; 3h with compound then agonist mix
Experimental: The acrosome assays utilize a high-throughput flow cytometer (S1 Fig) to score for compounds inducing the acrosome reaction, using peanut agglutinin conjugated to a fluorescent dye to label the outer acrosomal membrane. We have developed two different screening protocols, named ‘acrosome 1’ and ‘acrosome 2’ (S1 Fig). Both protocols are capable of measuring induction of the acrosome reaction upon compound incubation. However, in the acrosome 2 assay, a mixture of physiological agonists of the acrosome reaction is used after cells have been incubated with compounds for 3h under conditions that support capacitation. This addition allowed measurement of inhibition of acrosome reaction (Fig 2B).
as §3
as §2, with “Sperm viability flow cytometry data was processed using iQue Forecyt (Satorius) to gate out background debris, select for single cells and calculate percentage values of propidium iodide positive events. For all sperm functional assays, data was normalized to DMSO control wells. Each plate had 16 DMSO wells.” left out

human spermatozoa [5] = experiment: Capacitation assay (motility and hyperactivation under capacitating conditions); assay type: cell-based; settings: cluster in Fig 3A; 30 min capacitation then 30 min with compound
Experimental: as §1
Cells were capacitated for 30 min at 37°C and 5% CO2. 10 μL assay buffer was dispensed into assay ready plates, plates were put onto a shaker instrument for 30 seconds using 1,000 rpm, followed by a short pulse centrifugation. Plates were incubated for 15–30 mins at 37°C and 5% CO2 prior to addition of 10 μL of pooled cells (at 1 M/mL concentration). This was followed by a 20 min compound incubation step at 37°C and 5% CO2. Plates were then incubated in our CV7000 microscope set at 37°C and 5% CO2 for 10 min prior to imaging. […]
For cell painting imaging data, plates of images were imported into OMERO [70]. […] A median value of all 16 wells was used to calculated percentage change (pct_ch = ((value / DMSO_median) -1) * 100). For sperm viability we calculated fold-change (fc = 1 − (value / DMSO_median)). For each compound we calculated a p-value using a Welch’s t-test implemented in scipy (scipy.stats.ttest_ind) comparing a compounds effect to DMSO controls.

human spermatozoa [6] = experiment: Sperm viability assay (propidium iodide, flow cytometry); assay type: cell-based; settings: 3h with compound
Experimental: In this assay, cells are incubated for 3h with compound in non-capacitating media, prior to viability assessment.
Cells were incubated with compounds for a total of 3h at 37°C. 20 min prior, propidium iodide was added (1.5 mM solution, Sigma, final dilution 1:2000). Plates were analysed using a Satorius iQue Screener with settings to allow for a sampling time of ≤30 min per 384-well plate. Gating of data has been performed using the flow cytometer software to export counts of gated populations. This assay was tested in 5 separate donor pools.
as §2

HeLa = HeLa cell painting cytotoxicity assay; assay type: cell-based; settings: 24h compound incubation
Experimental: The HeLa-based assay uses the cell painting assay [11], while the HepG2 assay utilizes a resazurin based viability read-out [64].
Cell were incubated with compounds for 24h.
• 10 μL of MitoTracker (Life Technologies, M22426, 1 mM stock in DMSO as recommended by the vendor) is added to 50 μL of media (1:2000 final dilution) • Phalloidin-Alexa594 (Life Technologies, A12381, 66 μM stock in methanol as recommended by the vendor, 1:500 final dilution) • WGA-Alexa594 (Life Technologies, W11262, 5 mg/mL stock, 1:250 final dilution) was used • DAPI (5 mg/mL stock; 1:1000 final dilution) was used to stain DNA • 20 μL of staining solution was used • PBS was used for washing steps
For cell painting imaging data, plates of images were imported into OMERO [70]. Cell segmentation and feature extraction were performed using CellProfiler 3 [71] and using instructions from [11] to normalize data.

HepG2 = HepG2 cytotoxicity assay (resazurin based); assay type: cell-based; settings: 70h incubation
LRRK2 kinase = settings: described as; cited from earlier work

| Structure (SMILES) | sperm motility (human spermatozoa [1]) | Published Phenotype (spermatozoa) | TSSK2 inhibition [2] | acrosome reacted cells without agonist cocktail (human spermatozoa [3]) | acrosome reaction (acrosome reacted cells) (human spermatozoa [4]) | progressive motility (human spermatozoa [1]; non-capacitating conditions, Fig 2) | hyperactive motility (human spermatozoa [5]) | effects on sperm viability (human spermatozoa [6]) | general cytotoxicity (HeLa) (HeLa) | general cytotoxicity (HepG2) (HepG2) | LRRK2 kinase inhibition (LRRK2 kinase) |
| --- | --- | --- | --- | --- | --- | --- | --- | --- | --- | --- | --- |
| CNS(=O)(=O)c1ccccc1Nc1nc(Nc2ccc(C3CCN(C)CC3)cc2OC)ncc1Cl [Compound 19] | decrease sperm motility | Blocks TSSK; similarity to brigatinib | potent | – | – | – | – | – | – | – | – |
| COc1cc(C(=O)N2CCC(N3CCN(C)CC3)CC2)ccc1Nc1ncc2c(n1)N(C)c1ccccc1C(=O)N2C [LRRK2-IN-1] | – | – | – | no change | significantly increased | enhances motility | significantly increased | do not show effects | do not show effects | do not show effects | selective inhibitor |
